Data published in ChEMBL document CHEMBL3822442, “Synthesis and Pharmacological Characterization of Novel Glucagon-like Peptide-2 (GLP-2) Analogues with Low Systemic Clearance” (J Med Chem, 2016).
Activity calls are given as the source filed them. The calls are words filed in the database; no cut-off is given here. Non-standard residues stand in square brackets, D forms with d. Residues, ends and D or L forms follow the SMILES beside them. ξ: configuration not given here. ξ2Thi = NC(Cc1cccs1)C(=O)O; ξNle = CCCCC(N)C(=O)O

What was measured:
[1] = target: T1, Glucagon-like peptide 2 receptor (Homo sapiens, UniProt O95838); assay: Agonist activity at human GLP2R expressed in HEK293 cells after 5 hrs by luciferase reporter gene assay; format: cell-based
T1 sequence (O95838 whole entry): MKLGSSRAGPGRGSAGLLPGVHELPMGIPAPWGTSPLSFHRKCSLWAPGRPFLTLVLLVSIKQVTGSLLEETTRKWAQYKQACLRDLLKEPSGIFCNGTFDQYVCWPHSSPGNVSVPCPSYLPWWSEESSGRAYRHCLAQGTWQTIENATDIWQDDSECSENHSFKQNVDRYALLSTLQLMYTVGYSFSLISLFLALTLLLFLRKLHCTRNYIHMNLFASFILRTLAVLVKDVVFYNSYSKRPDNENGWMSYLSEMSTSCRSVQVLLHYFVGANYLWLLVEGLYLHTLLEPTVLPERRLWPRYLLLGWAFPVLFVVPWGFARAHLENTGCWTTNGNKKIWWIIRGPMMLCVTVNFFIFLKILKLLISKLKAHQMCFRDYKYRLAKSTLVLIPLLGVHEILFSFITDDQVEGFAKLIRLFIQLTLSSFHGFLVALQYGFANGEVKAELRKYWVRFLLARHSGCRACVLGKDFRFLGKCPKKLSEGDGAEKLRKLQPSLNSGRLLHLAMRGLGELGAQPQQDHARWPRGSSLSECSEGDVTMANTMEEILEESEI

[2] = target: T2, Glucagon-like peptide 1 receptor (Homo sapiens, UniProt P43220); assay: Agonist activity at human GLP1R expressed in HEK293 cells after 5 hrs by luciferase reporter gene assay; format: cell-based
T2 sequence (P43220 whole entry): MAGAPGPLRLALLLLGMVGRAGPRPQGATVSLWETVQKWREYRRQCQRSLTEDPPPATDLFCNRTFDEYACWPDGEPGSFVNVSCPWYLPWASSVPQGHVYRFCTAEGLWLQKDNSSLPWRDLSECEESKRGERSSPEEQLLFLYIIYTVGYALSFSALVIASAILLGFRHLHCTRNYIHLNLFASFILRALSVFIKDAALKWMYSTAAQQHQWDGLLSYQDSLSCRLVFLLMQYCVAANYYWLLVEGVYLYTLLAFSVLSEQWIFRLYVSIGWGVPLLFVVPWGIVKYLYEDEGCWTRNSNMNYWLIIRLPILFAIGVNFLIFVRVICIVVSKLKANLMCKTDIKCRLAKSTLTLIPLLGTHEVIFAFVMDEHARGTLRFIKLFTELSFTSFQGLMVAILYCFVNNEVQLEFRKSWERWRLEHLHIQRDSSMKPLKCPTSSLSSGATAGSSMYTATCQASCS

[3] = tested on: HEK293; assay: Selectivity ratio of EC50 for human GLP1R expressed in HEK293 cells to EC50 for human GLP2R expressed in HEK293; format: cell-based
[4] = Systemic clearance in Sprague-Dawley rat at 0.2 mg/kg, iv through cassette dosing measured up to 300 mins by LC/MS/MS analysis; format: ADME, organism-based; settings: in vivo
[5] = target: Glucagon receptor (Homo sapiens) (UniProt P47871); assay: Agonist activity at human GCGR expressed in HEK293 cells up to 1000 nM after 5 hrs by luciferase reporter gene assay; format: cell-based
Chain of Glucagon receptor (Homo sapiens) (P47871 whole entry): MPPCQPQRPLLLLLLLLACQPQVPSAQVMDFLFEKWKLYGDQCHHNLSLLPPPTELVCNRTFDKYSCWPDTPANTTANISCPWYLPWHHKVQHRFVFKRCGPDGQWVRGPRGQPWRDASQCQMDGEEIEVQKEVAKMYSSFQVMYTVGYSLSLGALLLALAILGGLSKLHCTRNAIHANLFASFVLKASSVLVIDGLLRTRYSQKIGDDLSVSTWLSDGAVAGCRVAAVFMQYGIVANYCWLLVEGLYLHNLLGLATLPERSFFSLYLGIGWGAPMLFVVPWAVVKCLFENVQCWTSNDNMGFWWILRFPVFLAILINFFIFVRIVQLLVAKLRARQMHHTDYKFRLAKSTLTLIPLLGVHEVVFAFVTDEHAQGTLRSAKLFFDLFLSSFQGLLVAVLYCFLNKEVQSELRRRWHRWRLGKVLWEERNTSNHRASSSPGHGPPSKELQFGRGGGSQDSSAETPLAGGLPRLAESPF

[6] = target: T2, Glucagon-like peptide 1 receptor; assay: Agonist activity at human GLP1R expressed in HEK293 cells at 30 nM after 5 hrs by luciferase reporter gene assay; format: cell-based
[7] = target: Glucagon receptor (Homo sapiens) (UniProt P47871); assay: Agonist activity at human GCGR expressed in HEK293 cells after 5 hrs by luciferase reporter gene assay; format: cell-based

| Structure (SMILES) | EC50 [1] | EC50 [2] | Ratio EC50 [3] | clearance [4] | Activity [5] | Efficacy [6] | Activity [7] |
| --- | --- | --- | --- | --- | --- | --- | --- |
| CCCCC(NC(=O)[C@H](CCC(=O)O)NC(=O)[C@H](CC(=O)O)NC(=O)[C@H](CO)NC(=O)[C@H](Cc1ccccc1)NC(=O)[C@H](CO)NC(=O)CNC(=O)[C@H](CC(=O)O)NC(=O)CNC(=O)[C@@H](N)Cc1cnc[nH]1)C(=O)N[C@@H](CC(N)=O)C(=O)N[C@H](C(=O)N[C@H](C(=O)N[C@@H](CC(C)C)C(=O)N[C@@H](CC(=O)O)C(=O)NC(Cc1cccs1)C(=O)N[C@@H](CC(C)C)C(=O)N[C@@H](C)C(=O)N[C@@H](C)C(=O)N[C@@H](CCCNC(=N)N)C(=O)N[C@@H](CC(=O)O)C(=O)N[C@@H](Cc1ccccc1)C(=O)N[C@H](C(=O)N[C@@H](CC(N)=O)C(=O)N[C@@H](Cc1c[nH]c2ccccc12)C(=O)N[C@@H](CC(C)C)C(=O)N[C@H](C(=O)N[C@@H](CCC(N)=O)C(=O)N[C@H](C(=O)N[C@@H](CCCCN)C(N)=O)[C@@H](C)O)[C@@H](C)CC)[C@@H](C)CC)[C@@H](C)CC)[C@@H](C)O (stereo partly drawn) (H-HGDGSFSDE[ξNle]NTILD[ξ2Thi]LAARDFINWLIQTK-NH2) | 0.2 nM | > 1000 nM | > 5000 | 6.1 mL/min/kg | inactive |  |  |
| CCCCC(NC(=O)[C@H](CCC(=O)O)NC(=O)[C@H](CC(=O)O)NC(=O)[C@H](CO)NC(=O)[C@H](Cc1ccccc1)NC(=O)[C@H](CO)NC(=O)CNC(=O)[C@H](CC(=O)O)NC(=O)CNC(=O)[C@H](N)Cc1cnc[nH]1)C(=O)N[C@@H](CC(N)=O)C(=O)N[C@H](C(=O)N[C@H](C(=O)N[C@@H](CC(C)C)C(=O)N[C@@H](CC(=O)O)C(=O)NC(CC1CCCCC1)C(=O)N[C@H](CC(C)C)C(=O)N[C@H](C)C(=O)N[C@H](C)C(=O)N[C@H](CCCNC(=N)N)C(=O)N[C@H](CC(=O)O)C(=O)N[C@H](Cc1ccccc1)C(=O)N[C@@H](C(=O)N[C@H](CC(N)=O)C(=O)N[C@@H](Cc1c[nH]c2ccccc12)C(=O)N[C@@H](CC(C)C)C(=O)N[C@H](C(=O)N[C@@H](CCC(N)=O)C(=O)N[C@H](C(=O)N[C@H](CCCCN)C(N)=O)[C@@H](C)O)[C@H](C)CC)[C@@H](C)CC)[C@H](C)CC)[C@@H](C)O (stereo partly drawn) |  |  | > 10000 |  | inactive |  |  |
| CCCCC(NC(=O)[C@H](CCC(=O)O)NC(=O)[C@H](CC(=O)O)NC(=O)[C@H](CO)NC(=O)[C@H](Cc1ccccc1)NC(=O)[C@H](CO)NC(=O)CNC(=O)[C@H](CC(=O)O)NC(=O)CNC(=O)[C@H](N)Cc1cnc[nH]1)C(=O)N[C@@H](CC(N)=O)C(=O)N[C@H](C(=O)N[C@H](C(=O)N[C@@H](CC(C)C)C(=O)N[C@@H](CC(=O)O)C(=O)NC(Cc1ccc(N)cc1)C(=O)N[C@H](CC(C)C)C(=O)N[C@H](C)C(=O)N[C@H](C)C(=O)N[C@H](CCCNC(=N)N)C(=O)N[C@H](CC(=O)O)C(=O)N[C@H](Cc1ccccc1)C(=O)N[C@@H](C(=O)N[C@H](CC(N)=O)C(=O)N[C@@H](Cc1c[nH]c2ccccc12)C(=O)N[C@@H](CC(C)C)C(=O)N[C@H](C(=O)N[C@@H](CCC(N)=O)C(=O)N[C@H](C(=O)N[C@H](CCCCN)C(N)=O)[C@@H](C)O)[C@H](C)CC)[C@@H](C)CC)[C@H](C)CC)[C@@H](C)O (stereo partly drawn) |  |  | > 7600 |  | inactive |  |  |
| CCCCC(NC(=O)[C@H](CCC(=O)O)NC(=O)[C@H](CC(=O)O)NC(=O)[C@H](CO)NC(=O)[C@H](Cc1ccccc1)NC(=O)[C@H](CO)NC(=O)CNC(=O)[C@H](CC(=O)O)NC(=O)CNC(=O)[C@H](N)Cc1cnc[nH]1)C(=O)N[C@@H](CC(N)=O)C(=O)N[C@H](C(=O)N[C@H](C(=O)N[C@@H](CC(C)C)C(=O)N[C@@H](CC(=O)O)C(=O)NC(Cc1ccc(Cl)cc1)C(=O)N[C@H](CC(C)C)C(=O)N[C@H](C)C(=O)N[C@H](C)C(=O)N[C@H](CCCNC(=N)N)C(=O)N[C@H](CC(=O)O)C(=O)N[C@H](Cc1ccccc1)C(=O)N[C@@H](C(=O)N[C@H](CC(N)=O)C(=O)N[C@@H](Cc1c[nH]c2ccccc12)C(=O)N[C@@H](CC(C)C)C(=O)N[C@H](C(=O)N[C@@H](CCC(N)=O)C(=O)N[C@H](C(=O)N[C@H](CCCCN)C(N)=O)[C@@H](C)O)[C@H](C)CC)[C@@H](C)CC)[C@H](C)CC)[C@@H](C)O (stereo partly drawn) |  |  | > 4500 |  | inactive |  |  |
| CCCCC(NC(=O)[C@H](CCC(=O)O)NC(=O)[C@H](CC(=O)O)NC(=O)[C@H](CO)NC(=O)[C@H](Cc1ccccc1)NC(=O)[C@H](CO)NC(=O)CNC(=O)[C@H](CC(=O)O)NC(=O)CNC(=O)[C@H](N)Cc1cnc[nH]1)C(=O)N[C@@H](CC(N)=O)C(=O)N[C@H](C(=O)N[C@H](C(=O)N[C@@H](CC(C)C)C(=O)N[C@@H](CC(=O)O)C(=O)NC(Cc1ccc(-c2ccccc2)cc1)C(=O)N[C@H](CC(C)C)C(=O)N[C@H](C)C(=O)N[C@H](C)C(=O)N[C@H](CCCNC(=N)N)C(=O)N[C@H](CC(=O)O)C(=O)N[C@H](Cc1ccccc1)C(=O)N[C@@H](C(=O)N[C@H](CC(N)=O)C(=O)N[C@@H](Cc1c[nH]c2ccccc12)C(=O)N[C@@H](CC(C)C)C(=O)N[C@H](C(=O)N[C@@H](CCC(N)=O)C(=O)N[C@H](C(=O)N[C@H](CCCCN)C(N)=O)[C@@H](C)O)[C@H](C)CC)[C@@H](C)CC)[C@H](C)CC)[C@@H](C)O (stereo partly drawn) |  |  | > 2800 |  | inactive |  |  |
| CCCCC(NC(=O)[C@@H](CCC(=O)O)NC(=O)[C@@H](CC(=O)O)NC(=O)[C@@H](CO)NC(=O)[C@@H](Cc1ccccc1)NC(=O)[C@@H](CO)NC(=O)CNC(=O)[C@@H](CC(=O)O)NC(=O)CNC(=O)[C@@H](N)Cc1cnc[nH]1)C(=O)N[C@H](CC(N)=O)C(=O)N[C@@H](C(=O)N[C@@H](C(=O)N[C@H](CC(C)C)C(=O)N[C@H](CC(=O)O)C(=O)NC(Cc1cccc2ccccc12)C(=O)N[C@@H](CC(C)C)C(=O)N[C@@H](C)C(=O)N[C@@H](C)C(=O)N[C@@H](CCCNC(=N)N)C(=O)N[C@@H](CC(=O)O)C(=O)N[C@@H](Cc1ccccc1)C(=O)N[C@H](C(=O)N[C@@H](CC(N)=O)C(=O)N[C@H](Cc1c[nH]c2ccccc12)C(=O)N[C@H](CC(C)C)C(=O)N[C@@H](C(=O)N[C@H](CCC(N)=O)C(=O)N[C@@H](C(=O)N[C@@H](CCCCN)C(N)=O)[C@H](C)O)[C@@H](C)CC)[C@H](C)CC)[C@@H](C)CC)[C@H](C)O (stereo partly drawn) |  |  | > 5200 |  | inactive |  |  |
| CCCCC(NC(=O)[C@@H](CCC(=O)O)NC(=O)[C@@H](CC(=O)O)NC(=O)[C@@H](CO)NC(=O)[C@@H](Cc1ccccc1)NC(=O)[C@@H](CO)NC(=O)CNC(=O)[C@@H](CC(=O)O)NC(=O)CNC(=O)[C@@H](N)Cc1cnc[nH]1)C(=O)N[C@H](CC(N)=O)C(=O)N[C@@H](C(=O)N[C@@H](C(=O)N[C@H](CC(C)C)C(=O)N[C@H](CC(=O)O)C(=O)NC(Cc1ccc2ccccc2c1)C(=O)N[C@@H](CC(C)C)C(=O)N[C@@H](C)C(=O)N[C@@H](C)C(=O)N[C@@H](CCCNC(=N)N)C(=O)N[C@@H](CC(=O)O)C(=O)N[C@@H](Cc1ccccc1)C(=O)N[C@H](C(=O)N[C@@H](CC(N)=O)C(=O)N[C@H](Cc1c[nH]c2ccccc12)C(=O)N[C@H](CC(C)C)C(=O)N[C@@H](C(=O)N[C@H](CCC(N)=O)C(=O)N[C@@H](C(=O)N[C@@H](CCCCN)C(N)=O)[C@H](C)O)[C@@H](C)CC)[C@H](C)CC)[C@@H](C)CC)[C@H](C)O (stereo partly drawn) |  |  | > 7600 |  | inactive |  |  |
| CCCCC(NC(=O)[C@H](CCC(=O)O)NC(=O)[C@H](CC(=O)O)NC(=O)[C@H](CO)NC(=O)[C@H](Cc1ccccc1)NC(=O)[C@H](CO)NC(=O)CNC(=O)[C@H](CC(=O)O)NC(=O)CNC(=O)[C@@H](N)Cc1cnc[nH]1)C(=O)N[C@@H](Cc1c[nH]c2ccccc12)C(=O)N[C@H](C(=O)N[C@H](C(=O)N[C@@H](CC(C)C)C(=O)N[C@@H](CC(=O)O)C(=O)N[C@@H](CC(N)=O)C(=O)N[C@@H](CC(C)C)C(=O)N[C@@H](C)C(=O)N[C@@H](C)C(=O)N[C@@H](CCCNC(=N)N)C(=O)N[C@@H](CC(=O)O)C(=O)N[C@@H](Cc1ccccc1)C(=O)N[C@H](C(=O)N[C@@H](CC(N)=O)C(=O)N[C@@H](Cc1c[nH]c2ccccc12)C(=O)N[C@@H](CC(C)C)C(=O)N[C@H](C(=O)N[C@@H](CCC(N)=O)C(=O)N[C@H](C(=O)N[C@@H](CCCCN)C(N)=O)[C@@H](C)O)[C@@H](C)CC)[C@@H](C)CC)[C@@H](C)CC)[C@@H](C)O (stereo partly drawn) | 0.21 nM | 56 nM | 260 | 0.71 mL/min/kg |  | 35% | inactive |
